{
  "source": "patent US20190112578A1",
  "about": "“Derivation and Self-Renewal of Multipotent Cells and Uses Thereof” (IsletOne AB, priority 2016, published 2019)",
  "type_in_all_cases": "cell-based",
  "key": {"[1]": {"test_system": "multipotent cells (MSCs)", "experiment": "Growth curves of multipotent cells (MSCs)", "conditions": "LN-521 under hypoxia versus standard conditions (plastic under normoxia)", "text": "Cells can be grown under hypoxic conditions using a variety of methods. Normally, hypoxic conditions for cell culturing are defined as culturing of cells in an atmosphere containing 5% or less of oxygen."}, "[2]": {"test_system": "Isl1 cells", "experiment": "qRT-PCR of multipotency and differentiation markers in cells grown under various conditions", "conditions": "LN-521 under hypoxia versus LN-521 normoxia, plastic hypoxia"}, "[3]": {"test_system": "embryonic rat cardiac mesenchymal stem cells and rat bone marrow", "experiment": "Derivation of Isl1+ cells from rat mesenchymal stem cells on laminins in Wnt-medium (Isl1 immunostaining)", "conditions": "on LN-521 in combination with hypoxia, two weeks in culture (5 passages)", "text": "In order to further improve feeder free culturing systems where the origin and expansion of multipotent cells could be followed, the inventors synthesized a plasmid construct comprising parts of the Isl1-promotor region linked to the fluorescent marker green fluorescent protein (GFP). The plasmid was introduced into the cells by means of electroporation. Mesenchymal cells (i) derived from rat embryonic hearts, (ii) obtained from rat bone marrow, (iii) obtained from the bone marrow of young healthy donors, (iv) obtained from human cord blood and other types of perinatal tissue, (v) isolated from human amniotic sources, (v) isolated from human adult cardiac tissue were labeled with the Isl1 gene construct concomitant to the addition of Wnt-containing medium (100 ng/ml Wnt-3a and […] BIO). […] In culture the cells grew to confluency and were passaged every other day. At each passage, cells were analysed immunohistochemically for the expression of Isl1.\nFor each experiment 10 pregnant sprague-dawley rats (gestational day, GD, 13 to 14) were used. The rats were euthanized in a CO2 chamber after which the whole embryos (approximately 10 embryos/rat) were removed through a low midline abdominal incision. From each embryo the heart was removed under microscope, minced into small pieces and rinsed repetitively with Hank's buffered salt solution (HBSS) (GibcoBRL, NY, USA). […]"}},
  "data": [
    {"substance": "LN-521: laminin heterotrimeric glycoprotein comprising an α5 chain, coated on cell culture plastic", "values": [
      {"measurement": "proliferation (growth curve)", "setting": "[1]", "result": "significantly faster"},
      {"measurement": "Isl1, KDR and Nkx_2_5 mRNA transcripts", "setting": "[2]", "result": "significantly higher"},
      {"measurement": "Troponin T2 transcripts", "setting": "[2]", "result": "lower"},
      {"measurement": "cells expressing Isl1", "setting": "[3]", "result": "80±15", "unit": "%"}
    ]}
  ]
}
